Data on 9 molecules can be found in patent publication US20030144360A1, “Composition and method for modulating BAR/FXR receptor activity” (Allergan Sales, Inc., priority 2001, published 2003).

In one series the target is T1, BAR-RXRα complex (UniProt P19793+Q62735).
T1 sequence (Q62735 1-469): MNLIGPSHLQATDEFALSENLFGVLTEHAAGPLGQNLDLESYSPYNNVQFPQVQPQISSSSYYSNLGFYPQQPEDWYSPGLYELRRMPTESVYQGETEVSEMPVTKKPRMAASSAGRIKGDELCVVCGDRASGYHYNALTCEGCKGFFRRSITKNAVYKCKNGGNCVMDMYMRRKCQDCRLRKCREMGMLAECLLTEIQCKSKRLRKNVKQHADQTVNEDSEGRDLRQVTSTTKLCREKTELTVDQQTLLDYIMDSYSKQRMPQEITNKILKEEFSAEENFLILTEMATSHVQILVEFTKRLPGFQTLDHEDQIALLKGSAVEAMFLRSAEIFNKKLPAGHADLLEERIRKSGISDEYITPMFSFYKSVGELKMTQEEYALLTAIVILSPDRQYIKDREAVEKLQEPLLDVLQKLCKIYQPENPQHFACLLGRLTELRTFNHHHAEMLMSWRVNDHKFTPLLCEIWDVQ
T1 sequence (P19793 1-462): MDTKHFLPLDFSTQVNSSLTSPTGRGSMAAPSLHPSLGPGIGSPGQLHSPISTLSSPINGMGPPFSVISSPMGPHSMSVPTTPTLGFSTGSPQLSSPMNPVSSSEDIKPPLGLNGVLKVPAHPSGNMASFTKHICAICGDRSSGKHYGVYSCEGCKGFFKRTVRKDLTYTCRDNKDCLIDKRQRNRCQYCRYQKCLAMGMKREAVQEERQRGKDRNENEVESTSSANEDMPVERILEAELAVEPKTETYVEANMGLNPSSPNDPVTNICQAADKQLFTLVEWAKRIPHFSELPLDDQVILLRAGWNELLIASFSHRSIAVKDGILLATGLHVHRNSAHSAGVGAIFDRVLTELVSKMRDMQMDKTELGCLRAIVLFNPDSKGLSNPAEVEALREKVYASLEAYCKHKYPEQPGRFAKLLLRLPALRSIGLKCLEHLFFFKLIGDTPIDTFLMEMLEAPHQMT
The following applies: cited from earlier work.

Series [1] has as its system other nuclear hormone receptors. The note with it: cited from earlier work.
A further series addresses T2, GAL-L-hRXRa (Homo sapiens, UniProt P19793).
T2 sequence (P19793 203-462): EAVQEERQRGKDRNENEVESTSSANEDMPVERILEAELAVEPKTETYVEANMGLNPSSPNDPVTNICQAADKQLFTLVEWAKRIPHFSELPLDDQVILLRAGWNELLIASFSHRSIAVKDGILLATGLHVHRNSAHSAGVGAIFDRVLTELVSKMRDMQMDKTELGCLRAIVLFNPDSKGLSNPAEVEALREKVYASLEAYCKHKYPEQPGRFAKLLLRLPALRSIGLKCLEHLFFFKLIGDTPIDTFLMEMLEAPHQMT
Put plainly: Co-transfection luciferase assay, MH100 × 4 reporter, GAL-L-hRXRa alone. The following applies: 50 μM CDCA.

Series [2] deals with BAR/FXR:RXR heterodimer (CV-1 cells) (/ Homo sapiens, UniProt Q62735;P19793 SEQ:1-469,SEQ:1-462). As to the kind of experiment: cell_activity; CV-1, 100 uM CDCA; text gives IBABP IR-1 reporter, FIG. 1A legend gives EcREx6. The following applies: label: 32P (gel shift). A general note: In EMSA bound probe runs differently from free probe, usually more slowly.

Protocol for GAL-L-hRXRa: CV-1 African Green Monkey cells were grown in Dulbecco's Modified Eagle's medium supplemented with 10% resin-charcoal stripped fetal bovine serum (FBS), 50 U/ml penicillin G and 50 μg/ml streptomycin sulfate (DMEM-FBS) at 37° C. in 5% CO2. One day prior to transfection, cells were plated to 50-80% confluence using phenol red-free DMEM-FBS. Cells were transiently transfected by lipofection as described in Forman et al., 81 Cell 687 (1995). Liposomes (N-[1-(2,3-dioleoyloxy)propyl]-N,N,N-ammonium methyl sulfate, sold by Boehringer Mannheim under the name DOTAP) were formed according to the manufacturer's instructions. The liposomes contained reporter gene constructs (300 ng/10^5 cells); cytomegalovirus driven expression vectors (25 ng/10^5 cells) were added as indicated along with CMX-Bgal (500 ng/10^5 cells) as an internal control. After 2 hours the liposomes were removed and replaced with fresh media. Cells were incubated for approximately 40 hours with phenol red-free DMEM-FBS containing the indicated compounds. After exposure to the specified ligand, the cells were harvested.
The harvested cells were assayed for the presence of luciferase activity. Cells were lysed in 0.1 M KPO4 (pH 7.8), 1.0% TRITON® X-100, 1.0 mM dithiolthreitol (DTT) and 2 mM ethylenediamine tetracetic acid (EDTA). Luciferase activity was measured by reaction of the cell lysates with luciferin in a reaction buffer comprising: 20 mM tricine, 1.07 mM Mg(CO3)4-Mg(OH)2-5H2O, 2.67 mM MgSO4.7H2O, 0.1 mM EDTA, 0.5 mM Sodium luciferin, 0.15 mg/ml Coenzyme A, 5 mM DTT, and 0.5 mM adenosine triphosphate (ATP). Resulting chemiluminescence was measured in a luminometer. […] All points were assayed in triplicate and varied by less than 15%. Each experiment was repeated three or more times with similar results.
As shown below, in most cases hRXRop was recombinantly coexpressed with one other of the indicated receptor constructs, so as to permit the formation of hetero-or homodimers containing hRXRop.
Expression of the luciferase reporter gene product was detected and quantified as described above.

As for `CC(C)=CCC/C(C)=C/CC/C(C)=C/CC/C(C)=C/CO` [geranylgeraniol], the “activation of the BAR-RXR complex” value on BAR-RXRα complex was “somewhat less strongly”.
In the case of `CC(C)=CCCC(C)=CCCC(C)=CC=O` [farnesal], the “activation of the BAR-RXR complex” value at BAR-RXRα complex is recorded as “somewhat less strongly”.
Turning to `COC(=O)/C=C(\C)CC/C=C(\C)CC[C@H]1OC1(C)C` [JH III, juvenile hormone III], the “activation of the BAR-RXR complex” value at BAR-RXRα complex was “activated”. Further, the “activation of BAR/FXR or RXR alone” value at BAR-RXRα complex (either receptor alone) is “does not activate”. Also, the “activation of other nuclear hormone receptors” value in series [1] is “failed to activate”.
On to `CC(C)=CCCC(C)=CCCC(C)=CC(=O)O` [farnesoic acid], for which the “activation of the BAR-RXR complex” value on BAR-RXRα complex is given as “somewhat less strongly”.
`C[C@H](CCC(=O)O)[C@H]1CC[C@H]2[C@@H]3[C@H](O)C[C@@H]4C[C@H](O)CC[C@]4(C)[C@H]3CC[C@]12C` [CDCA, chenodeoxycholic acid, reference compound]: the “Reporter Activity” value on GAL-L-hRXRa was found to be 0.38.
In the case of `CC(C)=CCC/C(C)=C/CC/C(C)=C/CC/C=C(\C)CC/C=C(\C)CCC=C(C)C` [squalene], the “activation of the BAR-RXR complex” value at BAR-RXRα complex is on record as “did not activate”.
Consider `CC(C)CCC[C@@H](C)[C@H]1CC[C@H]2[C@@H]3CC=C4C[C@@H](O)CC[C@]4(C)[C@H]3CC[C@]12C` [cholesterol], for which, at BAR-RXRα complex, the “activation of the BAR-RXR complex” value is “did not activate”.
As to `CC(C)=CCC/C(C)=C/CO` [geraniol], the “activation of the BAR-RXR complex” value on BAR-RXRα complex was “did not activate”.

B1: IBABP IR-1 BAR/FXR response element (dsDNA)
DNA 1: CCTTAAGGTGAATAACCTTGGGGCTCC
DNA 2: GGAGCCCCAAGGTTATTCACCTTAAGG
As to B1, in series [2], the activity is roughly 200 fold activation.
